Results: EPA's ToxRefDB 2

Columns and labels:
dog [1] = details: Subchronic oral toxicity in nonrodent, beagle, Feed, dose end: 15 week, group: systemic, systemic / organ weight / liver / absolute + systemic / organ weight / liver / relative to body weight + systemic / pathology microscopic / …
rat [2] = details: Subchronic oral toxicity in rodents, sprague dawley, Feed, dose end: 3 month, group: systemic, systemic / clinical chemistry / glucose / glucose + systemic / hematology / erythrocyte (rbc) count differential / erythrocyte (rbc) + …
rat [3] = details: Prenatal developmental toxicity study, other, Oral, Gavage/Intubation, dose end: 15 GD
rabbit = details: Prenatal developmental toxicity study, new zealand white, Oral, Gavage/Intubation, dose end: 19 GD, group: maternal
rat [4] = details: Fertility (Segment I); wistar; Injection; Subcutaneous; group: parental; systemic / organ weight / prostate / nos
mouse = details: Prenatal developmental toxicity study, other, Injection, Intraperitoneal, dose end: 15 GD
dog [5] = details: Sub-acute repeat dose toxicity; beagle; Oral; Gavage/Intubation; dose end: 14 day; group: systemic; systemic / clinical chemistry / [other] / [other]
rat [6] = details: Sub-acute repeat dose toxicity, sprague dawley, Oral, Gavage/Intubation, dose end: 14 day, group: systemic
rat [7] = details: Subchronic oral toxicity in rodents, sprague dawley, Gavage/Intubation, dose end: 93 day, group: systemic
rat [8] = details: Sub-acute repeat dose toxicity; Oral; Gavage/Intubation; dose end: 7 day; group: systemic; systemic / hematology / erythrocyte (rbc) count differential / erythrocyte (rbc) + systemic / hematology / hematocrit (hct) / hematocrit (…
rat [9] = details: Sub-acute repeat dose toxicity, sprague dawley, Oral, Gavage/Intubation, dose end: 10 day, group: systemic
dog [10] = details: Subchronic oral toxicity in nonrodent, beagle, Gavage/Intubation, dose end: 91 day, group: systemic
[11] = group: developmental, developmental / developmental malformation / bone / incomplete ossification + systemic / in life observation / body weight / fetal weight
[12] = group: maternal, systemic / hematology / hematocrit (hct) / hematocrit (hct) + systemic / hematology / hemoglobin (hgb) / hemoglobin (hgb) + systemic / …
[13] = systemic / in life observation / clinical signs / tremors
[14] = systemic / in life observation / clinical signs / tremors + reproductive / reproductive performance / aborted / aborted + systemic / …
[15] = group: developmental, developmental / developmental malformation / bone / misshapen + developmental / developmental malformation / bone / short + developmental / …
[16] = group: maternal, reproductive / reproductive performance / resorptions / resorptions
[17] = systemic / clinical chemistry / [other] / [other] + systemic / in life observation / clinical signs / [other] + systemic / in life …
[18] = systemic / in life observation / clinical signs / [other]
[19] = systemic / in life observation / clinical signs / [other] + systemic / in life observation / clinical signs / salivation
[20] = systemic / in life observation / body weight / body weight gain + systemic / in life observation / food consumption / food consumption
[21] = systemic / in life observation / food consumption / food consumption
[22] = systemic / in life observation / clinical signs / abnormal feces + systemic / in life observation / clinical signs / emesis
[23] = systemic / in life observation / clinical signs / abnormal feces + systemic / in life observation / clinical signs / emesis + systemic / …

## CC(C)(C)N(NC(=O)c1ccc(Cl)cc1)C(=O)c1ccccc1 [Halofenozide]
Dog [1]
  LEL: 11.5 mg/kg/day
  LOAEL: 11.5 mg/kg/day
  NEL: 4 mg/kg/day
  NOAEL: 4 mg/kg/day
Rat [2]
  LEL: 52.7 mg/kg/day
  LOAEL: 52.7 mg/kg/day
  NEL: 5.53 mg/kg/day
  NOAEL: 5.53 mg/kg/day
Rat [3]; [11]
  LEL: 180 mg/kg/day
  LOAEL: 180 mg/kg/day
  NEL: 30 mg/kg/day
  NOAEL: 30 mg/kg/day
Rat [3]; [12]
  LEL: 180 mg/kg/day
  LOAEL: 180 mg/kg/day
  NEL: 30 mg/kg/day
  NOAEL: 30 mg/kg/day
rabbit; [13]
  LEL: 20 mg/kg/day
  LOAEL: 20 mg/kg/day
rabbit; [14]
  NEL: 10 mg/kg/day
  NOAEL: 10 mg/kg/day

## NC(=O)N1c2ccccc2C=Cc2ccccc21 [Carbamazepine]
Rat [4]
  LEL: 20 mg/kg/day
  LOAEL: > 20 mg/kg/day
  NEL: < 20 mg/kg/day
  NOAEL: ≥ 20 mg/kg/day
mouse; [15]
  LEL: 15 mg/kg/day
  LOAEL: > 30 mg/kg/day
  NEL: < 15 mg/kg/day
  NOAEL: ≥ 30 mg/kg/day
mouse; [16]
  LEL: 15 mg/kg/day
  LOAEL: > 30 mg/kg/day
  NEL: < 15 mg/kg/day
  NOAEL: ≥ 30 mg/kg/day

## CCOc1ccc2[nH]cc(C(=O)NCc3ccccc3)c(=O)c2n1
Dog [5]
  LEL: 26 mg/kg/day
  LOAEL: > 26 mg/kg/day
  NEL: 6 mg/kg/day
  NOAEL: ≥ 26 mg/kg/day
Rat [6]; [17]
  LOAEL: > 198 mg/kg/day
  NOAEL: ≥ 198 mg/kg/day
Rat [6]; [18]
  LEL: 10 mg/kg/day
  NEL: < 10 mg/kg/day
Rat [7]; [18]
  LEL: 10 mg/kg/day
  NEL: < 10 mg/kg/day
Rat [7]; [19]
  LOAEL: > 240 mg/kg/day
  NOAEL: ≥ 240 mg/kg/day
Rat [8]
  LEL: 240 mg/kg/day
  LOAEL: > 240 mg/kg/day
  NEL: < 240 mg/kg/day
  NOAEL: ≥ 240 mg/kg/day
Rat [9]; [20]
  LOAEL: > 160 mg/kg/day
  NOAEL: ≥ 160 mg/kg/day
Rat [9]; [21]
  LEL: 5 mg/kg/day
  NEL: < 5 mg/kg/day
Dog [10]; [22]
  LEL: 1 mg/kg/day
  NEL: < 1 mg/kg/day
Dog [10]; [23]
  LOAEL: > 80 mg/kg/day
  NOAEL: ≥ 80 mg/kg/day
